Among the test systems are HCT-15; 786-0; SN12C; UO-31; NCI-H460; MDA-N; NCI-H522; SK-MEL-5; SNB-75; OVCAR-8; OVCAR-5; T47D; HCC 2998; COLO 205; UACC-257; HOP-62; OVCAR-3; U-251; A498.
Common to all, as to assay: growth of human tumour cells (NCI), 48 h

The structures appear in SMILES notation.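 Each compound was tested at five concentrations against cells in 96-well plates for 48 hours. The concentration for 50% growth inhibition is given as GI50.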 Activity calls are given as the source filed them. Cut-off read from the data, not from the text of the source: active = GI50 up to about 1.1 µM and inactive = higher. Where only a bound is given, the exact number is not on record here.

With `NS(=O)(=O)c1ccc(NC(=O)Nc2cccc3ccccc23)cc1`, the GI50 with HCT-15 is 91.4 µM; in the test on 786-0 it was 19 µM (inactive); in the test on SN12C, 45.5 µM (inactive); in the test on UO-31 it was 16.1 µM (inactive); with NCI-H460 it was 40.8 µM (inactive); in the test on MDA-N, 54.8 µM (inactive). Further, the GI50 with NCI-H522 was 19.4 µM (inactive); in the test with SK-MEL-5 it was > 100 µM (inactive); in the test with SNB-75 it was 22.5 µM (inactive); in the test with OVCAR-8 it was 20.9 µM (inactive); in the test on OVCAR-5, > 100 µM (inactive); in the test with T47D, 33.5 µM (inactive). In addition, the GI50 was 27.6 µM (inactive) with HCC 2998; 86.9 µM (inactive) in the test with COLO 205; > 100 µM (inactive) in the test on UACC-257; 34.4 µM (inactive) with HOP-62; 46.9 µM (inactive) in the test on OVCAR-3; 18.3 µM (inactive) with U-251. Further, in the test on A498, the GI50 is 22.5 µM (inactive).

Regarding `COC(=O)c1sc2c(=O)c(C(=O)OC)c(C(=O)OC)sc2c(=O)c1C(=O)OC`, the GI50 with HCT-15 is more than 100 µM; with 786-0 it was > 100 µM (inactive); in the test on SN12C it was > 100 µM (inactive); in the test with UO-31, > 100 µM (inactive); with NCI-H460, > 100 µM (inactive); in the test with MDA-N, > 100 µM (inactive). Also, the GI50 in the test on NCI-H522 was 21.5 µM (inactive); in the test with SK-MEL-5, > 76 µM (inactive); in the test on SNB-75 it was > 100 µM (inactive); in the test with OVCAR-8, > 100 µM (inactive); in the test on OVCAR-5 it was > 100 µM (inactive); with T47D it was > 100 µM (inactive). Besides, the GI50 was > 100 µM (inactive) with HCC 2998; > 100 µM (inactive) in the test on COLO 205; > 100 µM (inactive) in the test on UACC-257; > 100 µM (inactive) in the test with HOP-62; > 100 µM (inactive) in the test with OVCAR-3; > 80.9 µM (inactive) in the test with U-251. The GI50 in the test on A498 was > 100 µM (inactive).

In the case of `Cc1c(C)n(-c2ccccc2)c2nc([S+](C)[O-])nc([S+](C)[O-])c12` (stereo not given), the GI50 in the test on HCT-15 is 5 µM; in the test with 786-0 it was 2.56 µM (inactive); in the test with SN12C it was 8.28 µM (inactive); with UO-31, 7.74 µM (inactive); in the test with NCI-H460, 18.8 µM (inactive); in the test on MDA-N it was 3.68 µM (inactive). The GI50 with NCI-H522 is 1.89 µM (inactive); in the test with SK-MEL-5, 2.35 µM (inactive); in the test with SNB-75, 9.1 µM (inactive); with OVCAR-8, 4.09 µM (inactive); in the test on OVCAR-5, 15.3 µM (inactive); in the test with T47D, 2.44 µM (inactive). In addition, the GI50 is 15.2 µM (inactive) in the test with HCC 2998; 1.75 µM (inactive) in the test with COLO 205; 11.8 µM (inactive) in the test with UACC-257; 18.4 µM (inactive) in the test with HOP-62; 2.61 µM (inactive) with OVCAR-3; 8.53 µM (inactive) in the test with U-251. Further, in the test on A498, the GI50 was 13.1 µM (inactive).

As to `COC1C(O)C(O[C@H]2CC[C@@]3(C)C(CC[C@@H]4[C@@H]3CC[C@]3(C)[C@@H](C(C)OC5OC(CO)C(O)C(O)C5O)CC[C@]43O)C2)OC(C)C1OC1OC(CO)C(O)C(O)C1O` (stereo not given in full), the GI50 in the test with HCT-15 is more than 100 µM; in the test on 786-0 it was > 100 µM (inactive); in the test on SN12C, > 100 µM (inactive); with UO-31, > 100 µM (inactive); in the test with NCI-H460, > 100 µM (inactive); in the test on MDA-N, > 100 µM (inactive). Further, the GI50 with NCI-H522, in the test on SK-MEL-5, in the test with SNB-75, with OVCAR-8, in the test with OVCAR-5 and in the test with T47D was > 100 µM (inactive) throughout. Also, the GI50 with HCC 2998, in the test with COLO 205, with UACC-257, in the test on HOP-62, in the test on OVCAR-3 and in the test with U-251 was > 100 µM (inactive) each time. For the same compound, the GI50 with A498 is > 100 µM (inactive).

`CC1(C)C(O)c2ccccc2OC1N1CCN(C2Oc3ccccc3C(O)C2(C)C)CC1` (stereo not given): the GI50 was more than 100 µM in the test on HCT-15; > 100 µM (inactive) in the test on 786-0; > 100 µM (inactive) in the test on SN12C; > 100 µM (inactive) with UO-31; > 100 µM (inactive) in the test with NCI-H460; > 100 µM (inactive) in the test with MDA-N. For the same compound, the GI50 in the test on NCI-H522, in the test on SK-MEL-5, in the test on SNB-75, in the test on OVCAR-8, in the test with OVCAR-5 and in the test with T47D was > 100 µM (inactive) in each case. Also, the GI50 in the test on HCC 2998, with COLO 205, in the test with UACC-257, with HOP-62, with OVCAR-3 and with U-251 was > 100 µM (inactive) each time. Moreover, the GI50 in the test on A498 is 30 µM (inactive).

As to `CCOC(=O)c1sc2ncnc(N)c2c1C`, the GI50 in the test on HCT-15 was 73.6 µM; in the test with 786-0 it was 53.8 µM (inactive); in the test on SN12C, 21.4 µM (inactive); with UO-31, 82.4 µM (inactive); with NCI-H460, > 100 µM (inactive); with MDA-N, 41.8 µM (inactive). For the same compound, the GI50 in the test on NCI-H522 is 59.3 µM (inactive); with SK-MEL-5 it was 36.8 µM (inactive); in the test with SNB-75 it was 35.1 µM (inactive); in the test on OVCAR-8, 35 µM (inactive); in the test on OVCAR-5, 36.3 µM (inactive); in the test with T47D, 24.2 µM (inactive). In addition, the GI50 with HCC 2998 was 40.1 µM (inactive); in the test on COLO 205 it was 19.6 µM (inactive); in the test with UACC-257, 34.4 µM (inactive); in the test on HOP-62, 80 µM (inactive); in the test with OVCAR-3 it was > 100 µM (inactive); in the test on U-251 it was > 100 µM (inactive). Moreover, in the test on A498, the GI50 is 24.4 µM (inactive).

As for `Cc1cc(C)nc(SC(C)C(=O)N/N=C/c2ccc(OCc3ccccc3)cc2)n1` (stereo not given), the GI50 is 26.4 µM with HCT-15; 36.6 µM (inactive) with 786-0; 31.3 µM (inactive) in the test on SN12C; 32.1 µM (inactive) in the test with UO-31; 17.1 µM (inactive) in the test on NCI-H460; 22.8 µM (inactive) in the test with MDA-N. Further, the GI50 was 15.3 µM (inactive) in the test on NCI-H522; 7.03 µM (inactive) with SK-MEL-5; 33 µM (inactive) in the test with SNB-75; 30.4 µM (inactive) in the test on OVCAR-8; 78.9 µM (inactive) with OVCAR-5; 9.53 µM (inactive) in the test with T47D. Further, the GI50 in the test on HCC 2998 was 28.1 µM (inactive); in the test on COLO 205, 20.8 µM (inactive); with UACC-257, 7.41 µM (inactive); with HOP-62 it was 36 µM (inactive); in the test on OVCAR-3 it was 19.7 µM (inactive); in the test with U-251 it was 17 µM (inactive). In the test on A498, the GI50 is 31.8 µM (inactive).

With `CCCCCC1=C/C(=C\c2[nH]c(-c3ccc[nH]3)cc2OC)N=C1C`, the GI50 was less than 0.01 µM in the test with HCT-15; < 0.01 µM (active) in the test with 786-0; < 0.01 µM (active) in the test on SN12C; 0.011 µM (active) in the test with UO-31; 0.0124 µM (active) in the test on NCI-H460; < 0.01 µM (active) in the test on MDA-N. Besides, the GI50 in the test on NCI-H522 is < 0.01 µM (active); with SK-MEL-5, 0.0316 µM (active); with SNB-75 it was < 0.01 µM (active); in the test on OVCAR-8, < 0.01 µM (active); in the test on OVCAR-5 it was 0.0179 µM (active); in the test on T47D, 0.0189 µM (active). The GI50 with HCC 2998 was 0.0113 µM (active); in the test on COLO 205 it was < 0.01 µM (active); with UACC-257 it was 0.0684 µM (active); in the test with HOP-62, 0.0111 µM (active); in the test on OVCAR-3 it was < 0.01 µM (active); in the test on U-251 it was 0.0122 µM (active). Moreover, in the test on A498, the GI50 is 0.0989 µM (active).

Turning to `O/N=N/c1ccc([SH2]c2ccc3ccccc3c2)cn1`, the GI50 with HCT-15 is 17.1 µM; in the test with 786-0, 31.3 µM (inactive); in the test on SN12C it was 20.5 µM (inactive); in the test with UO-31, 24.6 µM (inactive); in the test with NCI-H460, 15.4 µM (inactive); with MDA-N, 31.4 µM (inactive). The GI50 with NCI-H522 was 17.5 µM (inactive); in the test with SK-MEL-5 it was 16.3 µM (inactive); in the test with SNB-75 it was 20.2 µM (inactive); with OVCAR-8, 19.1 µM (inactive); in the test with OVCAR-5, 32.7 µM (inactive); with T47D it was 20.6 µM (inactive). For the same compound, the GI50 in the test on HCC 2998 was 13.4 µM (inactive); in the test with COLO 205, 20.2 µM (inactive); with UACC-257, 36.1 µM (inactive); with HOP-62, 15.1 µM (inactive); with OVCAR-3 it was 43.8 µM (inactive); in the test with U-251, 19.3 µM (inactive). In addition, the GI50 in the test on A498 is 57.9 µM (inactive).

Turning to `CCCNC1=C2CC(C)CC(OC)[C@@H](O)[C@H](C)/C=C(\C)C(OC(N)=O)C(OC)/C=C\C=C(/C)C(=O)NC(=CC1=O)C2=O` (stereo not given in full), the GI50 in the test on HCT-15 was 0.321 µM; in the test with 786-0, 0.443 µM (active); with SN12C, 0.0809 µM (active); in the test on UO-31 it was 2.94 µM (inactive); in the test on NCI-H460, 0.0685 µM (active); in the test with MDA-N it was 0.118 µM (active). Further, the GI50 in the test with NCI-H522 is 0.00678 µM (active); with SK-MEL-5, 0.0637 µM (active); with SNB-75, 0.318 µM (active); in the test on OVCAR-8, 0.337 µM (active); with OVCAR-5, 0.0311 µM (active); in the test with T47D, 0.476 µM (active). Also, the GI50 is 0.264 µM (active) in the test on HCC 2998; 0.0319 µM (active) in the test on COLO 205; 0.0975 µM (active) in the test on UACC-257; 0.245 µM (active) in the test on HOP-62; 1.65 µM (inactive) with OVCAR-3; 0.579 µM (active) in the test with U-251. The GI50 with A498 was 0.944 µM (active).
